Source: patent US20090306053A1, “Highly selective rho-kinase inhibitor” (priority 2005, published 2009)

Key:
Type in all cases: biochemical
Recombinant human Ab1 = biological target: T1, Recombinant human Ab1 (Homo sapiens, UniProt P00519); experiment: Abl kinase assay (Kinase-Glo ATP consumption); conditions: 1 μM ATP; read-out: Kinase Inhibiting Activity (IC50) Abl
T1 construct: from 27th to 1149th amino acids; purchased Upstate
Description: Recombinant human Ab1 (from 27th to 1149th amino acids, Upstate) was used to evaluate its activity to phosphorylate a substrate peptide (EAIYAAPFAKKK, Upstate).
(§1) In a system of the total volume of 50 μL, the reaction of the above-mentioned enzyme (20 ng) was carried out at room temperature for 80 minutes in the presence of 50 mM of Tris-HCl (pH 7.5), 10 mM of magnesium chloride, 50 μM of the above peptide, and 1 μM of ATP. After the kinase reaction, the luminescence intensity corresponding to the amount of ATP in the reaction system was measured using a luciferase reagent (Kinase-Glo Luminescent Kinase Assay kit, Promega) with a chemiluminescence measurement apparatus (MicroLumat, Berthold Technologies). The amount of ATP consumed by the phosphorylation reaction was calculated by comparison with the luminescence intensity in the system when the kinase reaction was not carried out.
(§2) With this system, the kinase reaction was carried out in the presence of a compound at various concentrations, and the IC50 value of the compound was determined based on the resulting compound concentration-response curve for ATP consumption.

[1] = biological target: T2, Purified bovine PKA (catalyst subunit) (Bos taurus, UniProt P00517); experiment: PKA kinase assay (Kinase-Glo ATP consumption); conditions: for IC50: 1 μM ATP, read-out: Kinase Inhibiting Activity (IC50) PKA; for Realative Inhibitory Activity PKA: relative ratio to ROCKII (=1.0), based on IC50 values
T2 construct: Purified bovine PKA (catalyst subunit, Promega); purchased Promega
Description: Purified bovine PKA (catalyst subunit, Promega) was used to evaluate its activity to phosphorylate a substrate peptide (LRRASLG, Promega).
as §1, with “above-mentioned enzyme (43 ng) was” for “above-mentioned enzyme (20 ng) was”, “temperature for 20 minutes in” for “temperature for 80 minutes in”, “presence of 40 mM of” for “presence of 50 mM of”, “(pH 7.5), 20 mM of” for “(pH 7.5), 10 mM of”, “magnesium chloride, 1 mg/mL of BSA, 5 μM of” for “magnesium chloride, 50 μM of”
as §2
The ROCKII-inhibiting activity of a compound to be tested was defined as 1.0, and the inhibitory activities of the compound against kinases (PKA, PKG, CaMKII, and AuroraA) other than ROCKII were calculated as relative ratios to the ROCKII-inhibiting activity, based on the IC50 values calculated using the above-described evaluation system.

Purified chicken MLCK = biological target: T3, Purified chicken MLCK (Gallus gallus, UniProt P11799); experiment: MLCK kinase assay (Kinase-Glo ATP consumption); conditions: 1 μM ATP; read-out: Kinase Inhibiting Activity (IC50) MLCK
T3 construct: from tissue
Description: Purified chicken MLCK (purified by the method of M. Anne Conti, et al.: Method in Enzymol. 196, 34-47) was used to evaluate its activity to phosphorylate a substrate peptide (AKRPQRATSNVFS, Sigma).
as §1, with “above-mentioned enzyme (100 ng) was” for “above-mentioned enzyme (20 ng) was”, “presence of 20 mM of” for “presence of 50 mM of”, “(pH 7.5), 5 mM of” for “(pH 7.5), 10 mM of”, “magnesium chloride, 0.2 mM of calcium chloride, 0.02 mg/mL of BSA, 8 μg/mL of purified bovine brain calmodulin (Sigma), 50 μM” for “magnesium chloride, 50 μM”
as §2

Recombinant human Src = biological target: T4, Recombinant human Src (Homo sapiens, UniProt P12931); experiment: Src kinase assay (Kinase-Glo ATP consumption); conditions: 0.5 μM ATP; read-out: Kinase Inhibiting Activity (IC50) Src
T4 construct: purchased Upstate
Description: Recombinant human Src (Upstate) was used to evaluate its activity to phosphorylate a substrate peptide (KVEKIGEGTYGVVYK, Upstate).
In a system of the total volume of 50 μL, the reaction of the above-mentioned enzyme (6 Units) was carried out at room temperature for 80 minutes in the presence of 40 mM of MOPS-NaOH (pH 7.5), 10 mM of magnesium chloride, 25 mM of manganese chloride, 300 μM of the above peptide, and 0.5 μM of ATP. After the kinase reaction, the luminescence intensity corresponding to the amount of ATP in the reaction system was measured using a luciferase reagent (Kinase-Glo Luminescent Kinase Assay kit, Promega) with a chemiluminescence measurement apparatus (MicroLumat, Berthold Technologies). The amount of ATP consumed by the phosphorylation reaction was calculated by comparison with the luminescence intensity in the system when the kinase reaction was not carried out.
as §2

Purified rat PKC = experiment: PKC kinase assay (Kinase-Glo ATP consumption); conditions: 1 μM ATP; read-out: Kinase Inhibiting Activity (IC50) PKC
Description: Purified rat PKC (containing PKCα, β, and γ and small amounts of δ and ξ isoforms, Promega) was used to evaluate its activity to phosphorylate a substrate peptide (AAKIQASFRGHMARKK, Promega).
as §1, with “above-mentioned enzyme (5 ng) was” for “above-mentioned enzyme (20 ng) was”, “presence of 20 mM of” for “presence of 50 mM of”, “(pH 7.5), 20 mM of” for “(pH 7.5), 10 mM of”, “magnesium chloride, 0.4 mM of calcium chloride, 0.1 mg/mL of BSA, 0.25 mM of EGTA, 0.5 mg/mL of phosphatidylserine (Sigma), 0.05 mg/mL of 1,2-dioctanoyl-sn-glycerol (Sigma), 10 μM of” for “magnesium chloride, 50 μM of”
as §2

T1 sequence (P00519 27-1149 isoform P00519-2): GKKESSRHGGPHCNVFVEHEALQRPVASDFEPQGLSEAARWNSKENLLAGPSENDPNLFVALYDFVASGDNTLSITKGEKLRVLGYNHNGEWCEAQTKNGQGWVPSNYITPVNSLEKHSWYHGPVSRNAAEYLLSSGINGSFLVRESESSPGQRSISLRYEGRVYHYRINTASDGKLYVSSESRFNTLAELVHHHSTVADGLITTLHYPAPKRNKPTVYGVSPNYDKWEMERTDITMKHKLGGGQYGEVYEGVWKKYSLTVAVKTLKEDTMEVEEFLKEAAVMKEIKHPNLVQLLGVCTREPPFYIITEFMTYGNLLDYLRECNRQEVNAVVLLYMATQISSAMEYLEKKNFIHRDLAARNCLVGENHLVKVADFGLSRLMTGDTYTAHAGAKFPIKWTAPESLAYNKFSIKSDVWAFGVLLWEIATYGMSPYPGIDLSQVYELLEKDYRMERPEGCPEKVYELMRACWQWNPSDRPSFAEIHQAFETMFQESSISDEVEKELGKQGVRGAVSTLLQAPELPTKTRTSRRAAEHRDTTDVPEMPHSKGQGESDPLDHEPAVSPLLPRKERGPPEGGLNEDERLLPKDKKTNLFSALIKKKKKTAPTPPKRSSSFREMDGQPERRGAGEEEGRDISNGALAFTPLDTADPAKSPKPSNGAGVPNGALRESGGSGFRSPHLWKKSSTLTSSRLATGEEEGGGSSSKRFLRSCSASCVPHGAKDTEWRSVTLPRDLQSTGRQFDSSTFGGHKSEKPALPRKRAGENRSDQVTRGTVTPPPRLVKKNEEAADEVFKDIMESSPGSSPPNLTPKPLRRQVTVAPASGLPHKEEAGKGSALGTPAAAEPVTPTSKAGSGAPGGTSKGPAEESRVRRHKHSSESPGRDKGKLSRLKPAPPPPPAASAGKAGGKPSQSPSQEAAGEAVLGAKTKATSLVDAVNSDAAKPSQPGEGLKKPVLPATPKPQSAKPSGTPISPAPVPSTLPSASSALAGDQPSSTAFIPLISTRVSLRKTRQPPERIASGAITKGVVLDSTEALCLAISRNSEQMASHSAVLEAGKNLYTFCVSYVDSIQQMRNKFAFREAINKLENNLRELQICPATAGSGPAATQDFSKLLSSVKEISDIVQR

Row | Compound | IC50 (Recombinant human Ab1) | IC50 [1] | Realative Inhibitory Activity PKA [1] | IC50 (Purified chicken MLCK) | IC50 (Recombinant human Src) | IC50 (Purified rat PKC)
1 | 2-(S)-1-(4-fluoroisoquinoline-5-sulfonyl)-4-glycyl-2-methylhomopiperazine dihydrochloride [Example 1] | > 100 µM | > 100 µM | >3000 | > 100 µM | > 100 µM | > 100 µM
2 | CNCC(=O)N1CCCN(S(=O)(=O)c2cccc3cncc(F)c23)[C@@H](C)C1.Cl.Cl [Example 2, 2-(S)-1-(4-fluoroisoquinoline-5-sulfonyl)-2-methyl-4-(N-methylglycyl)homopiperazine dihydrochloride] | > 100 µM | > 100 µM | >3000 | > 100 µM | > 100 µM | > 100 µM
